# Reference: patent publication US20210401867A1, “PHOTOSENSITIZERS AND METHOD OF TREATING CANCER USING THE SAME” (Cheng-Wen Wu, priority 2018, published 2021)
# How the values were obtained:
# [1] = test system: FaDu-RFP+ cells; experiment: in vivo IdU incorporation rate in FaDu-RFP+ solid tumors (flow cytometry); parameters: species or system mouse
# Excerpt: An injection concentration of IdU is selected based on a flow cytometry analysis on the incorporation rate of IdU in tumor cells. Referring to FIG. 13A, a schematic diagram of an in vivo animal experiment for determining an injection concentration of IdU is provided in accordance with an exemplary embodiment of the present disclosure. FaDu cells are marked with RFP (red fluorescent protein) and […]. The malignant solid tumors formed by FaDu-RFP+ cells on the tumorigenic mouse are injected with different concentrations of IdU: 100 μg, 50 μg, 20 μg, 10 μg, 5 μg, or 2 μg per 100 μl PBS. 4 hours later, the tumorigenic mouse are sacrificed and the solid tumors are isolated to single cells. The single cells from the solid tumors are then subjected to antibody staining and flow cytometry analyses. Referring to FIG. 13B, a flow cytometry result of the experiments described by FIG. 13A, is provided in accordance with an exemplary embodiment of the present disclosure. The horizontal axis represents the RFP signals, and the vertical axis represents the GFP signals. […] Only 6.232% of FaDu cells are detected with GFP in the left panel of FIG. 13B. The right panel of FIG. 13B are FaDu cells treated with 50 μg of IdU, an area 132 is FaDu cells detected with GFP signals. 19.088% of FaDu cells are detected with GFP signals in the right panel of FIG. 13B. […]
# [2] = test system: CASPASE-3; experiment: immunohistochemical (IHC) examination of subcutaneous FaDu tumor cells; assay type: in vivo, mouse; settings: 1 day after treatment
# Description: One day after the tumorigenic mouse are treated with IdU, or the combination of IdU and 4.5 Gy of NR/RS2000, the subcutaneous FaDu tumor cells are subjected to immunohistochemical (IHC) examination. […] The control group in FIGS. 15A-15F or FIGS. 16A-16B is the subcutaneous FaDu tumor cells without any treatment. […] CASPASE-3 is directly involved in apoptosis, therefore the combination of IdU and NR is proven to induce tumor growth inhibition.
# [3] = test system: γH2AX; experiment: Western blotting for pATM, γH2AX and c-CASP3 in FaDu cells; assay type: cell-based, human; settings: 10 μM IdU and 2 Gy of NR, 30 minutes after irradiation, among all treatments
# Description: To investigate the mechanism associated with the combination of IdU and NR in the Auger molecular therapy, molecular markers involving DNA damage and apoptosis are analyzed. In vitro FaDu cells are treated with 10 μM of IdU, and irradiated by 2Gy of NR or RS2000. 30 minutes after above treatments, FaDu cells are subjected to Western blot to determine the expression of several proteins relevant to DNA damage and apoptosis: phosphor-ATM (pATM) is a protein kinase activated by DNA double-strand-breaks (DSBs), and it phosphorylates several key factors to initiate DNA damage checkpoint and repair; γH2AX is one of the targets of pATM, and it forms the foundation of chromatin-based signaling cascades at DSBs sites, and it is widely considered as a highly specific and sensitive marker for quantitative evaluation of DSB; and CASP3 is a marker for increased apoptosis, wherein c-CASP3 is a cleaved CASP3 formed when apoptotic signals are present in the cell. The subcutaneous tumor also subjected to Western blot 3 days after the above treatments.
# FIGS. 17A and 17B are results of Western blotting for protein expression levels of pATM, γH2AX, and c-CASP3, in accordance with exemplary embodiments of the present disclosure. FIG. 17A is the result at 30 minutes after irradiation, and FIG. 17B is the result at 3 days after irradiation, wherein β-ACTIN are served as an internal control in both figures. […]
# [4] = test system: subcutaneous malignant solid tumor comprised of FaDu cells; experiment: in vivo tumor growth of subcutaneous FaDu solid tumor on tumorigenic mice; settings: for tumor growth inhibition rate: end of the in vivo test; for relative proliferation rate of solid tumor: repeated after 7 days
# Description: FIG. 12 is a schematic diagram of an in vivo animal experiment, in accordance with an exemplary embodiment of the present disclosure. A subcutaneous malignant solid tumor comprised of FaDu cells (tumor size is about 200 mm^3) on the tumorigenic mice is injected with 0.5 μg/μl of IdU. 4 hours after the injection, the solid tumor is then irradiated by 4 Gy 33 keV NR. The IdU-NR treatment are repeated on the same tumor after 7 days. Other groups of mouse are only injected with 50 μg of IdU or only irradiated with 4 Gy 33 keV NR, and the IdU injection or the NR irradiation is repeated on the same tumor after 7 days. The control group is the mice without NR, IdU, or IdU-NR treatment.
# The subcutaneous malignant solid tumor comprised of FaDu cells on the tumorigenic mice is treated with IdU, NR, or IdU and NR, following the same experiment procedure as depicted in FIG. 12. The relative proliferation rates of the solid tumors are calculated by measuring the size of the solid tumor on Days 3, 7, 10, 14, 17, 21, 24, and 28, respectively. […] The solid tumor of IdU-NR group has the lowest relative proliferation rate among other groups, and the relative proliferation rate of IdU-NR group is even lower than 100% (p<0.05), this indicates the tumor size is smaller after the IdU and NR treatment.
# To further investigate a therapeutically effective dosage for the combination of IdU and NR, another series of in vivo experiments are conducted, see FIGS. 15A-15F. The experiment procedure is the same with the procedure described in FIG. 12. FIG. 15A and FIG. 15B show cells irradiated with 2.25 Gy NR and 2.25 Gy RS2000, FIG. 15C and FIG. 15D show cells irradiated with 4.5 Gy NR and 4.5 Gy RS2000, and FIG. 15E and FIG. 15F show cells irradiated with 9 Gy NR and 9 Gy RS2000, in accordance with exemplary embodiments of the present disclosure. Control groups in FIGS. 15A-15F are FaDu cells isolated from the subcutaneous solid tumor of the tumorigenic mouse without treatment of IdU or any radiation. The tumor growth index in FIGS. 15A-15F are calculated based on tumor volumes: for each of the tumorigenic mouse, the tumor volume on Day 0 is set as 100%, and relative volume percentages in the following days relative to Day 0 are presented as the tumor growth index (%).
smiles,measurement,setting,value
"O=c1[nH]c(=O)n([C@H]2C[C@H](O)[C@@H](CO)O2)cc1I [IdU, iododeoxyuridine]",IdU incorporation rate among injected concentrations,"[1]; 50 μg IdU/100 μl PBS versus 100, 20, 10, 5, 2 μg",best IdU incorporation rate
same,FaDu cells detected with GFP signals (IdU incorporation),"[1]; 50 μg of IdU injected into tumor, 4 hours",19.088%
same,"apoptotic cells (IHC, qualitative)","[2]; IdU and 4.5 Gy of NR, versus other groups",more apoptotic cells
same,"CASPASE-3 expression in the tumor cells (IHC, quantitative)","[2]; IdU and NR, versus other treatments",more pronounced CASPASE-3 expression
same,γH2AX expression (Western blot),[3],most γH2AX expression
same,tumor growth inhibition rate,[4]; IdU 50 μg and 4.5 Gy NR,68%
same,tumor growth inhibition rate,[4]; IdU 50 μg and 9 Gy NR,83%
same,tumor growth versus RS2000 only,"[4]; IdU 50 μg and RS2000 (2.25, 4.5, 9 Gy)",does not significantly inhibit the tumor growth
same,relative proliferation rate of solid tumor,"[4]; IdU-NR group, 0.5 μg/μl IdU plus 4 Gy 33 keV NR, p<0.05",lower than 100%
same,relative proliferation rate of solid tumor,"[4]; IdU-only group, 50 μg of IdU, to Day 28",lower relative proliferation rate than the control group
same,tumor growth (tumor growth index),"[4]; treated only with IdU, 50 μg",not inhibited
